{"source": "patent US20120034210A1", "about": "“COMPOSITIONS FOR POTENTIATING APOPOSIS SIGNALS IN TUMOUR CELLS” (INSTITUT BERGONIE, priority 2008, published 2012)", "tested_on": "intracellular calcium concentration", "assay": "Intracellular Ca2+ concentration, indo-1 (micro)spectrofluorimetry", "type": "cell-based, human", "method": "Principle: [Ca^2+]i was measured by microspectrofluorimetry using a calcium sensitive fluorescent probe: indo-1. When excited at 360 nm wavelength, the so-called monoexcitation/double emission indo-1 probe transmitted back in a spectrum ranging from 400 to 500 nm. Binding of Ca^2+ to indo-1 caused displacement of the emission spectrum after excitation. The emission maximum in the unbound form was located around 480 nm. The emission of the complexed form was around 405 nm. An increase of calcium concentration thus caused the emission to increase to 405 nm and the emission to decrease to 480 nm. The ratio of both fluorescence intensities allowed to be independent from the quantity of the probe and to determine the [Ca^2+]i according to the Grynkiewicz equation:\n[Ca^2+]i(nM)=Kd.β×(R−Rmin)/(Rmax−R)\nRmax, Rmin and Kd. β were determined by combining electrophysiology (patch clamp) and spectrofluorimetry. Rmax was determined by placing in the patch pipette a medium containing 10 mM CaCl2. Rmin was obtained by placing as an intrapipette solution a calcium-deprived medium (10 mM EGTA).\nThe cells were then rinsed with HBSS (800 rpm centrifugation for 2 minutes) and placed in an observation chamber on a glass coverslip. […] The excitation light is supplied by a Xenon lamp (100W). […] The substances to be tested were applied using a glass pipette positioned at some twenty μm of the studied cell and connected to a pneumatic system.\nThe principle as well as the loading of the cells were identical with the measurement on single cells. In such a case, approx. 40,000 cells were placed in a quartz tub under constant agitation. The tub was then placed in a Hitachi spectrofluorimeter whereof the excitation monochromator was set to 350 nm. […] The signals were transmitted to a computer via an analogue/digital converter. So as to be able to apply the Grynkiewicz equation (see above) and translate the fluorescence ratios measured in calcium values, the calibration parameters were entered into the software. The substances to be tested were applied directly in the tube under constant agitation.", "data": [{"smiles": "CC(=O)OCOC(=O)CN(CC(=O)OCOC(C)=O)c1ccccc1OCCOc1ccccc1N(CC(=O)OCOC(C)=O)CC(=O)OCOC(C)=O", "note": "[BAPTA-AM, 1,2-bis-(o-Aminophenoxy)ethane-N,N,N′,N′-tetraacetic tetra-(acetoxymethyl) acid Ester]", "values": [{"measurement": "increase in intracellular calcium in response to extracellular 3 mM Ca2+", "setting": "Raji, BAPTA-AM 10 μM pretreatment", "value": "smaller increase in the intracellular calcium concentration"}, {"measurement": "CD95-mediated peak of calcium", "setting": "non-cytotoxic concentrations, CD95 stimulation", "value": "totally abrogated the CD95-mediated peak of calcium"}, {"measurement": "basal [Ca2+]i", "setting": "pre-incubation of cells", "value": "induced a faint decrease in the basal [Ca^2+]i"}]}]}
